The supplement of paper PMC10307832

Tests used:
Test in all cases: relative viability (nuclei count vs DMSO), 5 days (fraction); higher = more cells survive
MIM1 = compound: CC1=CSC(=NC2CCCCC2)N1/N=C/C3=C(C(=C(C=C3)O)O)O [MIM1]
How it was run: (§1)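 After an overnight hold at 37 °C, lung cancer cell lines in 1536-well plates were pinned with five library-drug doses (not always all listed), each √10 from the next, on vehicle-anchored plates. The cells stayed 5 days without fresh medium, then a one-step fix, permeabilisation and Hoechst stain preceded 4× imaging and MetaXpress nuclear counts. A plate passed only with control CV under 25% and at least one doubling. Viability is the median, over plates, of treated-well nuclei relative to vehicle-well nuclei.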

Luminespib = compound: CCNC(=O)c1noc(-c2cc(C(C)C)c(O)cc2O)c1-c1ccc(CN2CCOCC2)cc1 [Luminespib]
How it was run: as §1

Saracatinib = compound: CN1CCN(CCOc2cc(OC3CCOCC3)c3c(Nc4c(Cl)ccc5c4OCO5)ncnc3c2)CC1 [Saracatinib]
How it was run: as §1

Nilotinib = compound: Cc1cn(-c2cc(NC(=O)c3ccc(C)c(Nc4nccc(-c5cccnc5)n4)c3)cc(C(F)(F)F)c2)cn1 [Nilotinib]
How it was run: as §1

Lenalidomide = compound: Nc1cccc2c1CN(C1CCC(=O)NC1=O)C2=O [Lenalidomide]
How it was run: as §1

Cell Line | relative viability (MIM1; 0.2 µM) | relative viability (MIM1; 0.6325 µM) | relative viability (MIM1; 2 µM) | relative viability (MIM1; 6.325 µM) | relative viability (MIM1; 20 µM) | relative viability (Luminespib; 0.002 µM) | relative viability (Luminespib; 0.006325 µM) | relative viability (Luminespib; 0.01 µM, anchor plate) | relative viability (Luminespib; 0.02 µM) | relative viability (Luminespib; 0.06325 µM) | relative viability (Luminespib; 0.2 µM) | relative viability (Saracatinib; 0.02 µM) | relative viability (Saracatinib; 0.2 µM) | relative viability (Saracatinib; 0.6325 µM) | relative viability (Saracatinib; 2 µM) | relative viability (Nilotinib; 0.001 µM) | relative viability (Nilotinib; 0.003162 µM) | relative viability (Nilotinib; 0.01 µM) | relative viability (Nilotinib; 0.03162 µM) | relative viability (Nilotinib; 0.1 µM) | relative viability (Lenalidomide; 0.253 µM) | relative viability (Lenalidomide; 0.8 µM) | relative viability (Lenalidomide; 2.53 µM) | relative viability (Lenalidomide; 8 µM)
COR-L23 | 0.995 | 1.11 | 1.01 | 0.77 | 0.424 | 1.14 | 0.913 | 0.672 | 0.925 | 0.091 | 0.0907 | 1.05 | 0.856 | 0.905 | 0.975 | 0.877 | 1.34 | 1.2 | 0.704 | 0.768 | 1.01 | 0.957 | 1.2 | 1.22
NCI-H2228 | 0.999 | 0.978 | 1.31 | 0.517 | 0.172 | 1.23 | 0.87 | 0.148 | 0.451 | 0.172 | 0.157 | 1.04 | 0.825 | 0.9 | 0.841 | 0.773 | 1.5 | 1.36 | 0.698 | 0.511 | 0.795 | 1.07 | 1.22 | 0.89
NCI-H2342 | 0.944 | 1 | 1.01 | 0.803 | 1.03 | 0.974 | 0.955 | 0.76 | 0.619 | 0.774 | 0.592 | 1.07 | 0.947 | 1.14 | 0.945 | 0.868 | 0.928 | 1.02 | 0.831 | 1.02 | 1.01 | 0.952 | 1.04 | 0.733
NCI-H2009 | 0.996 | 0.965 | 1.04 | 0.716 | 0.29 | 1.03 | 0.923 | 1.01 | 0.903 | 0.0828 | 0.0845 | 1.04 | 0.906 | 0.997 | 0.782 | 0.9 | 1.05 | 1.18 | 1 | 0.588 | 0.994 | 0.986 | 1.13 | 1.01
NCI-H1395 | 0.961 | 0.791 | 0.873 | 0.675 | 0.345 | 1.07 | 0.861 | 0.764 | 0.622 | 0.362 | 0.323 | 0.994 | 0.828 | 0.91 | 0.799 | 0.957 | 0.7 | 0.874 | 0.803 | 0.542 | 0.997 | – | 1.02 | 0.846
NCI-H1651 | 0.983 | 0.959 | 0.932 | 0.896 | 0.799 | 0.979 | 0.934 | 0.86 | 0.818 | 0.738 | 0.351 | 1 | 0.887 | 1.07 | 0.937 | 0.94 | 1.09 | 1.14 | 0.905 | 0.676 | 0.972 | 0.984 | 1.14 | 0.904
HCC-827 | 1.01 | 0.994 | 1.03 | 0.367 | 0.39 | 1.06 | 1 | 0.647 | 0.984 | 1.03 | 0.235 | 1.02 | 0.813 | 0.366 | 0.188 | 1.02 | 1.09 | 1.07 | 1.03 | 1.06 | 1.04 | 0.99 | 1.05 | 1.1
LOU-NH91 | 0.863 | 0.903 | 0.809 | 0.758 | 0.394 | 0.995 | 0.922 | 0.364 | 0.717 | 0.334 | 0.376 | 0.945 | 0.741 | 0.834 | 0.66 | 0.961 | 0.944 | 0.973 | 0.981 | 0.967 | 1 | 0.873 | 0.95 | 0.905
NCI-H1650 | 0.908 | 0.949 | 0.654 | 0.189 | 0.148 | 1.02 | 0.823 | 0.199 | 0.228 | 0.122 | 0.138 | 0.814 | 0.689 | 0.737 | 0.581 | 0.912 | 1.22 | 1.12 | 0.931 | 0.598 | 0.828 | 0.857 | 1.23 | 1.12
PC-14 | 0.959 | 1.01 | 0.836 | 0.807 | 0.325 | 1.02 | 0.933 | 0.164 | 0.572 | 0.0917 | 0.0993 | 1.01 | 0.675 | 0.453 | 0.234 | 0.944 | 1.14 | 1.26 | 0.879 | 0.643 | 1.01 | 1.02 | 1.12 | 1.1
RERF-LC-KJ | 0.932 | 0.977 | 0.823 | 0.574 | 0.271 | 0.979 | 0.994 | 1.24 | 0.844 | 0.314 | 0.234 | 1.1 | 0.979 | 1.02 | 0.981 | 0.932 | 1.1 | 1.12 | 0.868 | 0.81 | 1.06 | 0.947 | 1.08 | 0.943
LC-2-ad | 0.991 | 0.699 | 0.944 | 0.428 | 0.231 | 0.95 | 0.936 | 1.03 | 0.915 | 0.561 | 0.207 | 1.05 | 0.978 | 1.15 | 0.944 | 0.95 | 1.15 | 1.15 | 0.912 | 0.479 | 1.04 | 0.862 | 1.08 | 1.02
NCI-H1299 | 0.983 | 0.992 | 0.994 | 1.01 | 0.776 | 1.03 | 0.95 | – | 1.04 | 0.942 | 0.217 | 1.02 | 0.948 | 1.05 | 1 | 0.939 | 1.08 | 1.15 | 1.02 | 0.966 | 1.02 | 0.97 | 1.03 | 1.05
HCC-15 | 0.997 | 0.717 | 1.08 | 0.425 | 0.105 | 0.967 | 0.923 | 0.388 | 0.943 | 0.33 | 0.128 | 0.982 | 0.888 | 1.07 | 0.99 | 0.909 | 1.18 | 1.15 | 0.761 | 0.496 | 1.02 | 0.877 | 1.21 | 0.854
